Measured values as given in BindingDB's records for patent WO2022079616 (NOVARTIS AG, 2022).
pIC50: −log10 of the molar value.

Key:
[1] = molecular target: PI3K/PI4K catalytic domain-containing protein (Cryptosporidium hominis, UniProt A0A0S4TH36)
[2] = molecular target: T1, Phosphatidylinositol 4-kinase (Cryptosporidium parvum (strain Iowa II), UniProt Q5CVD3); assay: PI(4)K enzymatic Assay
T1 sequence (Q5CVD3 whole entry): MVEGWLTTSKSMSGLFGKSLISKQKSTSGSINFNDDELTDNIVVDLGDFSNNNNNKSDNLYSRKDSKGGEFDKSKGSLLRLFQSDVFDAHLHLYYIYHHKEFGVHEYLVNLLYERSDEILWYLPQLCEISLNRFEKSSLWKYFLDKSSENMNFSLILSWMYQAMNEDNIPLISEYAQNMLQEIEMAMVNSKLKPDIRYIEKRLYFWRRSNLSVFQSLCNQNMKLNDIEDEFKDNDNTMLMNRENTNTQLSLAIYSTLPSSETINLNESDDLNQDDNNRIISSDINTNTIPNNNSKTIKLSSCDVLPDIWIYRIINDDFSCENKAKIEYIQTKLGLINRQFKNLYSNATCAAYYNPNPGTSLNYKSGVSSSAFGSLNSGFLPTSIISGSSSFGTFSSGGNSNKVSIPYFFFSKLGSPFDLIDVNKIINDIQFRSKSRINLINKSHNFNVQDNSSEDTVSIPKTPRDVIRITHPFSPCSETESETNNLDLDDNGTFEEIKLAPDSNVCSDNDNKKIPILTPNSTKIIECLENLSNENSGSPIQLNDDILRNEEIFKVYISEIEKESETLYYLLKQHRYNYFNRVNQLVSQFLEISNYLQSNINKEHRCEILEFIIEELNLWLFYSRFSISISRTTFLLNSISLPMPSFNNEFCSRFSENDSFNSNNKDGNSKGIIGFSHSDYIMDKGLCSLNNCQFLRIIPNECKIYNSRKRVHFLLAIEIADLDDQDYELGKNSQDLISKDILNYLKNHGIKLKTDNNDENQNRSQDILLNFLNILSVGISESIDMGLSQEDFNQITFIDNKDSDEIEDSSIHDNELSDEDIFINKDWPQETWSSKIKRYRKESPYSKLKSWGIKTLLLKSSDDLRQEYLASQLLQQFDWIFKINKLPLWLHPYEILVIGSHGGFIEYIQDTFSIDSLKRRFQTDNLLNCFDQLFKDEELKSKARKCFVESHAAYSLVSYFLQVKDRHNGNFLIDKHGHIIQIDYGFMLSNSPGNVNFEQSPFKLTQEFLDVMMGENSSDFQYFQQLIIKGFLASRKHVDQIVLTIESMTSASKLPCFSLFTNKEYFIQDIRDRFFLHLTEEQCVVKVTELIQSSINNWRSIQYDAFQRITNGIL
Source text: Baculovirus expression and purification of C. parvum phosphatidylinositol 4-kinase: The full-length coding sequence of C. parvum PI(4)K (cgd8_4500, 1114 amino acids) was codon-optimized for baculovirus expression, synthesized and cloned into pFastBac-HTb (Invitrogen 10584-027) in frame with the amino-terminal polyhistidine tag using the BamHI and HindIII restriction sites. Recombinant pFastBacHTb-CpPI(4)K bacmid clones were generated by site-specific transposition in E. coli DH10Bac (Invitrogen 10361-012). The bacmid sequence was confirmed by direct DNA sequencing to confirm a lack of mutations across the whole gene. The subsequent steps for bacmid isolation, transfection and selection of the recombinant viruses were performed according to the manufacturer s protocol (Bac-to-Bac system # 10359, Invitrogen).SF9 cells, cultured in SF-900 III serum-free medium, were transfected with recombinant baculovirus at 1/200 (v/v) and incubated at 27 °C for 72^h. The pellets were collected after centrifugation and re-suspended in cell lysis buffer (20^mM Tris-HCl, pH^7.5, 300^mM NaCl, 1mM DTT, 20mM imidazole, 0.01% Triton X-100 and 1×^complete protease inhibitor cocktail without EDTA (Roche Diagnostics 04693116001)). The cell suspension was lysed by sonication and the clarified supernatant was loaded onto a 1^ml HisTrap affinity column (GE Healthcare) pre-equilibrated with buffer A (20^mM Tris-HCl, pH^7.5, 300^mM NaCl, 1mM DTT, 20mM Imidazole, and 1×^complete protease inhibitor cocktail without EDTA). The column was washed with buffer B (buffer A containing 45 mM imidazole) and the bound protein of interest was eluted with buffer C (buffer A with 90^mM imidazole). The fractions containing CpPI(4)K were pooled, concentrated using Amicon Ultra-15 and purified by a gel-filtration column (Hi-Load 26/60 Superdex 200, GE Healthcare) equilibrated with 20^mM Tris, pH^7.5, 300^mM NaCl, 1^mM DTT and 1×^protease inhibitor cocktail without EDTA. The concentrations of the purified protein (Mw 132.39 kda) was determined by using the protein molar extinction coefficient (ε280^nm = 133,810^M−1^cm−1). Aliquots were flash frozen in liquid nitrogen and immediately stored at −80 °C.PI(4)K enzymatic Assay: The CpPI(4)K enzymatic assay was performed as described earlier with a some modifications (McNamara et al., 2013). Briefly, L-α-phosphatidylinositol (Avanti Polar Lipid 840046), dissolved in 3% n-octylglucoside (Roche Diagnostics 10634425001), was used as the lipid substrate for the PI(4)K activity assay. CpPI(4)K was assayed using Transcreener ADP2 FP detection kit (BellBrook 3010) in a black, solid 384-well plate (Corning 3575). The final assay volume was 10^μl and contained 3^nM of the respective CpPI(4)K construct in 10^mM Tris, pH^7.5, 1^mM DTT, 3^μM ATP, 5^mM Mn2+, 0.05% Triton X-100 and 10^μM phosphatidylinositol/octylglucoside. The enzyme reaction was performed for 50 minutes at room temperature and was stopped by adding 10^μl of detection mix containing 1×^stop buffer (50mM HEPES, pH7.5, 400mM NaCl, 20mM EDTA, and 0.02% Brij-35), 2^nM AMP Alexa Fluor 633 tracer, and 20^μg^ml−1 ADP antibody. Fluorescence polarization measurements were performed on the Infinite M1000 plate reader (Tecan) with λex = 635^nm and λem = 680^nm (20-nm bandwidth). IC50 values were calculated using Graphpad Prism software.

PI3K/PI4K catalytic domain-containing protein, sequence (A0A0S4TH36 whole entry, the tested form may be a part): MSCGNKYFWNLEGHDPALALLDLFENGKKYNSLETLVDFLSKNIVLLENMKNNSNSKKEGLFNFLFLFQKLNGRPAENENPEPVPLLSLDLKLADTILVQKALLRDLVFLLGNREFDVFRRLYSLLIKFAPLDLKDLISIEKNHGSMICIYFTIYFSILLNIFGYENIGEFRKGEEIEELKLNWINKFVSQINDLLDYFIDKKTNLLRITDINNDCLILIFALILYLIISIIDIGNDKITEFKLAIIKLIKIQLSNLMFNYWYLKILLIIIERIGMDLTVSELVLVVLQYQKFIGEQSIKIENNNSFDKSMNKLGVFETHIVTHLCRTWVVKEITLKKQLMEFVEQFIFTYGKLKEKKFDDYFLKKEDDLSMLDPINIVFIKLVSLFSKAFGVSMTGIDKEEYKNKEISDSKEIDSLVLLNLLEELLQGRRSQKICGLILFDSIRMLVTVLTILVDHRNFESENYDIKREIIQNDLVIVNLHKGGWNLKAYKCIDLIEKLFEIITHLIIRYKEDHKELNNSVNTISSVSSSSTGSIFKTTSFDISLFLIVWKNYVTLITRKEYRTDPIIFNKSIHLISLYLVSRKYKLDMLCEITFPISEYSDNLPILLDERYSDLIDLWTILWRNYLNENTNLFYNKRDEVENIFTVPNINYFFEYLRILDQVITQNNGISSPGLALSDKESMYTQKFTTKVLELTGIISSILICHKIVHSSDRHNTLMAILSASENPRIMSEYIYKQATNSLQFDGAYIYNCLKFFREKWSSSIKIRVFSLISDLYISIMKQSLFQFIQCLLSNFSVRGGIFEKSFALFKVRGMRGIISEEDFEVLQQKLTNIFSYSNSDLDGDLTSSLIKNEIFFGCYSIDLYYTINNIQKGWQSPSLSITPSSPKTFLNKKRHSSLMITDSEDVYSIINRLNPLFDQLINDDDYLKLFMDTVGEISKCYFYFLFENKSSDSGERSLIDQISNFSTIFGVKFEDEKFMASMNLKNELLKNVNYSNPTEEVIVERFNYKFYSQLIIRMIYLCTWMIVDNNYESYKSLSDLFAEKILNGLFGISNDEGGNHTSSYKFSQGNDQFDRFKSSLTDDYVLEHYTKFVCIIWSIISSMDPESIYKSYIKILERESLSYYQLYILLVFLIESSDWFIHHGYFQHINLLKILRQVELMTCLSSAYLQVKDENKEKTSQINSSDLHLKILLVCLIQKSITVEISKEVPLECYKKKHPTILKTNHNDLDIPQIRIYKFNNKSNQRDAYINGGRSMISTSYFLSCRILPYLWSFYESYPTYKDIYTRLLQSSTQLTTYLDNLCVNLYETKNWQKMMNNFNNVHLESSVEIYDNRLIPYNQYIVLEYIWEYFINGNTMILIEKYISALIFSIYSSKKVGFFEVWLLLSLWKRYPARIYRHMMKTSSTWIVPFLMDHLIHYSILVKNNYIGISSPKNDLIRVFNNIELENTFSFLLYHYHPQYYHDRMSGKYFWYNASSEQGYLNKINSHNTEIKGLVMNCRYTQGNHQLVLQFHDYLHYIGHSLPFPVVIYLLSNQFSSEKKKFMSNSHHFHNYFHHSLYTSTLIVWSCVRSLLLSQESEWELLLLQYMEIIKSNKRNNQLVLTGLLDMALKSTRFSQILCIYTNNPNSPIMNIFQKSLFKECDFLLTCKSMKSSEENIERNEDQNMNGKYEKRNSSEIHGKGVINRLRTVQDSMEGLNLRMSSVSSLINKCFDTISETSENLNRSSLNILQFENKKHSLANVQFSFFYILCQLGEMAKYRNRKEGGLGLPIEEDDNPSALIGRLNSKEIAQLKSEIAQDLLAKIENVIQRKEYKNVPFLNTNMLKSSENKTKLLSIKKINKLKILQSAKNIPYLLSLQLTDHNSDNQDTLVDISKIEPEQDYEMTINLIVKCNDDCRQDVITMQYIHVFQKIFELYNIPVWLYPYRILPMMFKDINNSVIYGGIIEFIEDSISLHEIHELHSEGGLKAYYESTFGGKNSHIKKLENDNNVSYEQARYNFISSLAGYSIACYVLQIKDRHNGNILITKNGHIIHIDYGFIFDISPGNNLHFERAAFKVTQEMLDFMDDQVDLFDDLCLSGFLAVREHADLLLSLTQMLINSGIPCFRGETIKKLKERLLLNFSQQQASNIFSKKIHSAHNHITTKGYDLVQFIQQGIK

CCOC(=O)OC(C)OC(=O)c1cc(N(C)C(=O)c2ccn3ncc(-c4ccc(C(N)=O)cc4)c3c2)ccc1Cl (racemic) [WO2022079616, Example 1.14]
pIC50 [1]: < 6.00 | pIC50 [2]: 6.26

CN(C(=O)c1ccn2ncc(-c3ccc(C(N)=O)cc3)c2c1)c1ccc(Cl)c(C(=O)OCC2CCCO2)c1 (racemic) [WO2022079616, Example 1.15]
pIC50 [2]: > 7.00

CN(C(=O)c1ccn2ncc(-c3ccc(C(N)=O)cc3)c2c1)c1ccc(Cl)c(C(=O)OC(C)(C)C)c1 [WO2022079616, Example 1.02]
pIC50 [2]: > 7.00

CN(C(=O)c1ccn2ncc(-c3ccc(C(N)=O)cc3)c2c1)c1ccc(Cl)c(C(=O)O)c1 [WO2022079616, Example 1.03]
pIC50 [2]: > 7.00

CSCCOC(=O)c1cc(N(C)C(=O)c2ccn3ncc(-c4ccc(C(N)=O)cc4)c3c2)ccc1Cl [WO2022079616, Example 1.04]
pIC50 [2]: > 7.00

CC(C)COC(=O)c1cc(N(C)C(=O)c2ccn3ncc(-c4ccc(C(N)=O)cc4)c3c2)ccc1Cl [WO2022079616, Example 1.05]
pIC50 [2]: > 7.00

COC(=O)COC(=O)c1cc(N(C)C(=O)c2ccn3ncc(-c4ccc(C(N)=O)cc4)c3c2)ccc1Cl [WO2022079616, Example 1.06]
pIC50 [2]: > 7.00

CN(C(=O)c1ccn2ncc(-c3ccc(C(N)=O)cc3)c2c1)c1ccc(Cl)c(C(=O)OCCN2CCOCC2)c1 [WO2022079616, Example 1.08]
pIC50 [1]: < 6.00 | pIC50 [2]: > 7.00

CCOC(=O)c1cc(N(C)C(=O)c2ccn3ncc(-c4ccc(C(N)=O)cc4)c3c2)ccc1Cl [WO2022079616, Example 1.09]
pIC50 [2]: > 7.00

CN(C(=O)c1ccn2ncc(-c3ccc(C(N)=O)cc3)c2c1)c1ccc(Cl)c(C(=O)OCC(F)(F)F)c1 [WO2022079616, Example 1.10]
pIC50 [2]: > 7.00

COCCOC(=O)c1cc(N(C)C(=O)c2ccn3ncc(-c4ccc(C(N)=O)cc4)c3c2)ccc1Cl [WO2022079616, Example 1.11]
pIC50 [2]: > 7.00

CN(C)C(=O)COC(=O)c1cc(N(C)C(=O)c2ccn3ncc(-c4ccc(C(N)=O)cc4)c3c2)ccc1Cl [WO2022079616, Example 1.12]
pIC50 [2]: > 7.00

CC(C)OC(=O)c1cc(N(C)C(=O)c2ccn3ncc(-c4ccc(C(N)=O)cc4)c3c2)ccc1Cl [WO2022079616, Example 1.13]
pIC50 [2]: > 7.00

CNC(=O)c1ccc(-c2cnn3ccc(C(=O)N(C)c4ccc(Cl)c(C(=O)OC)c4)cc23)cc1 [WO2022079616, Example 1.16]
pIC50 [1]: 6.26 | pIC50 [2]: > 7.00

CNC(=O)c1ccc(-c2cnn3ccc(C(=O)N(C)c4ccc(Cl)c(C(=O)OC(C)(C)C)c4)cc23)cc1 [WO2022079616, Example 1.17]
pIC50 [2]: > 7.00

CNC(=O)c1ccc(-c2cnn3ccc(C(=O)N(C)c4ccc(Cl)c(C(=O)O)c4)cc23)cc1 [WO2022079616, Example 1.18]
pIC50 [1]: 6.26 | pIC50 [2]: > 7.00

CNC(=O)c1ccc(-c2cnn3ccc(C(=O)N(C)c4ccc(Cl)c(C(=O)OCCN5CCOCC5)c4)cc23)cc1 [WO2022079616, Example 1.19]
pIC50 [1]: 6.26 | pIC50 [2]: > 7.00

COC(=O)c1cc(N(C)C(=O)c2ccn3ncc(-c4ccc(C(N)=O)cc4C)c3c2)ccc1Cl [WO2022079616, Example 1.21]
pIC50 [1]: < 6.00 | pIC50 [2]: > 7.00

CNC(=O)c1ccc(-c2cnn3ccc(C(=O)N(C)c4ccc(Cl)c(C(=O)OC)c4)cc23)cc1C [WO2022079616, Example 1.22]
pIC50 [1]: < 6.00 | pIC50 [2]: 6.26

COC(=O)c1cc(NC(=O)c2ccn3ncc(-c4ccc(C(N)=O)cc4)c3c2)ccc1Cl [WO2022079616, Example 1.23]
pIC50 [1]: < 6.00 | pIC50 [2]: < 6.00

CNC(=O)c1ccc(-c2cnn3ccc(C(=O)Nc4ccc(Cl)c(C(=O)OC)c4)cc23)cc1 [WO2022079616, Example 1.24]
pIC50 [1]: < 6.00 | pIC50 [2]: < 6.00

COC(=O)c1cc(N(C)C(=O)c2ccn3ncc(-c4ccc(C(N)=O)cc4)c3c2)ccc1OC(F)(F)F [WO2022079616, Example 1.25]
pIC50 [1]: < 6.00 | pIC50 [2]: > 7.00

CNC(=O)c1ccc(-c2cnn3ccc(C(=O)N(C)c4ccc(OC(F)(F)F)c(C(=O)OC)c4)cc23)cc1 [WO2022079616, Example 1.26]
pIC50 [2]: > 7.00

COC(=O)c1cc(N(C)C(=O)c2ccn3ncc(-c4ccc(C(N)=O)cc4)c3c2)ccc1C#N [WO2022079616, Example 1.27]
pIC50 [1]: < 6.00 | pIC50 [2]: 6.26

CNC(=O)c1ccc(-c2cnc3cnc(C(=O)N(C)c4ccc(Cl)c(C(=O)OC)c4)cn23)cc1 [WO2022079616, Example 2.1]
pIC50 [1]: < 6.00 | pIC50 [2]: > 7.00

CNC(=O)c1ccc(-c2cnn3cnc(C(=O)N(C)c4ccc(Cl)c(C(=O)OC)c4)cc23)cc1 [WO2022079616, Example 3.1]
pIC50 [1]: < 6.00 | pIC50 [2]: > 7.00

COC(=O)c1cc(Cl)ccc1N(C)C(=O)c1ccn2ncc(-c3ccc(C(N)=O)cc3)c2c1 [WO2022079616, Example 4.1]
pIC50 [1]: 6.26 | pIC50 [2]: > 7.00
